Data as given in publication PMC11339798, “Dual inhibitors of Pseudomonas aeruginosa virulence factors LecA and LasB” (Chemical Science, 2024).

How the values were obtained:
LecA = target: T1, LecA (Pseudomonas aeruginosa, UniProt Q05097); experiment: Competitive binding assay for LecA based on fluorescence polarization; parameters: species or system P. aeruginosa
T1 construct: made in house; host or cells: E. coli (plasmid pET25-pail)
Experimental: The four thiols 17, 18, 24 and 25 as well as three disulfides 26a, 26b and 27 were then evaluated for their activity against LecA using a competitive binding assay based on fluorescence polarization (Fig. 4B). […]
Expression and purification of LasB and LecA
LecA was expressed recombinantly using E. coli pET25-pail, whereas LasB was isolated from P. aeruginosa PA14 culture supernatant as described previously. 1,2
LecA labeling with fluorescein was performed in analogy to Sommer et al. 3 and Beshr et al.4 To this end fluorescein isothiocyanate (FITC) was freshly dissolved in carbonate-bicarbonate buffer with pH of 9.3 at a concentration of 3 mg mL-1. Subsequently, 66 µL of this FITC solution was combined with 1.4 mL of LecA at a concentration of 60 µM in carbonate-bicarbonate buffer, pH 9.3. The resulting mixture was then incubated at 25 °C with shaking at 500 rpm for 1 hour. Then, extensive washing with PBS/Ca2+ in a 5 kDa molecular weight cutoff centrifugal concentrator was performed to remove excess dye and buffer the labelled protein. […]
Competitive binding assay for LecA
The procedure for the fluorescence polarization-based competitive binding assay for LecA was performed as reported by Joachim et al. with modifications. 1 The assay was performed in TBS/Ca2+ buffer (20 mM Tris, 137 mM NaCl, 2.6 mM KCl at pH 7.4 supplemented with 1 mM CaCl 2 and contained 5% DMSO). The final protein concentration in the assay was 5 µM for LecA. Fluorescence intensities were recorded on a PheraStar FS plate reader (BMG Labtech GmbH, Germany) and polarization was calculated using MARS Data Analysis (BMG Labtech).
IC50 values were obtained from a four-parameter curve-fitting procedure. Averages and standard deviations were calculated from at least three independent experiments of technical

Cytotoxicity MTT assay [1] = format: cell-based, human; settings: human
Experimental: (§1) Selectivity and toxicity assays […]
(§2) Cytotoxicity on human liver (HepG2), kidney (HEK293) and lung (A549) cells were performed
(§3) using MTT assay and measuring the optical density (OD) photometrically at 570 nm in a […]

HepG2 = experiment: Cytotoxicity MTT assay; format: cell-based, human; settings: HepG2, at 100 μM
Experimental: as §1, §2, §3

HEK293 = experiment: Cytotoxicity MTT assay; format: cell-based, human; settings: HEK293, at 100 μM
Experimental: as §1, §2, §3

Cytotoxicity MTT assay [2] = format: cell-based, human; settings: human, A549 cells (lung)
Experimental: as §1
(§4) Cytotoxicity on human liver (HepG2), kidney (HEK293) and lung (A549) cells were performed using MTT assay and measuring the optical density (OD) photometrically at 570 nm in a FLUOstar Omega plate reader (BMG labtech, Ortenberg, Germany) as described previously. 6 […]
(§5) The A549 cell line, derived from human lung adenocarcinoma, was grown in Dulbecco's Modified Eagle Medium (DMEM) supplemented with 10% Fetal Bovine Serum (FBS) and 1% penicillin-streptomycin. […]

A549 = experiment: Cytotoxicity MTT assay; format: cell-based, human; settings: A549, at 100 μM
Experimental: as §1, §4, §5

T1 sequence (Q05097 whole entry): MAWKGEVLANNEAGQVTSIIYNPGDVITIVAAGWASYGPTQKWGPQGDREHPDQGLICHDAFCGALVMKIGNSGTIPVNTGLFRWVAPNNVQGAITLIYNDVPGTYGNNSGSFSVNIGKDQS

Row | SMILES | IC50 (LecA) [µM] | IC50 (Cytotoxicity MTT assay [1]; HEK293 cells (kidney)) [µM] | IC50 (Cytotoxicity MTT assay [1]; HepG2 cells (liver)) [µM] | cytotoxicity (HepG2) | cytotoxicity (HEK293) | IC50 (Cytotoxicity MTT assay [2]) [µM] | cytotoxicity (A549)
1 | CC(C)CC(S)C(=O)Nc1ccc(S[C@@H]2O[C@H](CO)[C@H](O)[C@H](O)[C@H]2O)cc1 (some centres unmarked) [Compound 12] | 19.8 | > 100 | > 100 | no detectable cytotoxicity | no detectable cytotoxicity | > 100 | no detectable cytotoxicity
2 | O=C(Nc1ccc(S[C@@H]2O[C@H](CO)[C@H](O)[C@H](O)[C@H]2O)cc1)C(S)Cc1ccccc1 (some centres unmarked) [Compound 11] | 18.1 | > 100 | > 100 | no detectable cytotoxicity | no detectable cytotoxicity | > 100 | no detectable cytotoxicity
